# Measured values published in ChEMBL document CHEMBL6178021, “Optimization of Tambjamines Active against Multiple Stages of Malaria Parasites” (J Med Chem, 2025).
# Columns and labels:
# MDR1 (human) [1] = experiment: Apparent permeability across basolateral to apical side in MDCK transfected with human MDR1 cells incubated for 1 hr by LC-MS analysis; settings: dog, MDCK-MDR1
# in vitro [2] = settings: mouse, liver microsomes
# [3] = Metabolic stability in human liver microsomes assessed as half life measured up to 60 mins by LC/MS analysis; type: ADME, Microsome
# Plasmodium falciparum [4] = experiment: microbe, parasite or virus in culture; settings: Dd2, 72 h
# Description: Antiplasmodial activity against asexual blood-stage Plasmodium falciparum Dd2 using 2% haematocrit and 0.2% parasitemia assessed as reduction in fluorescence measured after 72 hrs by Malaria SYBR Green I-based Fluorescence (MSF) assay
# Plasmodium yoelii [5] = experiment: Antimalarial activity against erythrocytic Plasmodium yoelii MRA-428 infected in CF1 mouse assessed as cured mouse at 50 mg/kg, po once daily for 4 days measured on day 28 day; type: functional, organism-based; settings: time 4.0 day
# Plasmodium yoelii [6] = experiment: Antimalarial activity against erythrocytic Plasmodium yoelii MRA-428 infected in CF1 mouse assessed as reduction in parasitemia at 50 mg/kg, po once daily for 4 days measured on day 5; type: functional; design: scale not given: the % may be the effect or the level left; settings: time 4 day
# Plasmodium yoelii [7] = experiment: Antimalarial activity against erythrocytic Plasmodium yoelii MRA-428 infected in CF1 mouse assessed as cured mouse at 80 mg/kg, po once daily for 4 days measured on day 28 day; type: functional, organism-based; settings: time 4.0 day
# MDR1 (human) [8] = experiment: Apparent permeability across apical to basolateral side in MDCK transfected with human MDR1 cells incubated for 1 hr by LC-MS analysis; settings: dog, MDCK-MDR1
# Plasmodium falciparum [9] = experiment: microbe, parasite or virus in culture; settings: D6, 72 h
# Description: Antiplasmodial activity against asexual blood-stage Plasmodium falciparum D6 using 2% haematocrit and 0.2% parasitemia assessed as reduction in fluorescence measured after 72 hrs by Malaria SYBR Green I-based Fluorescence (MSF) assay
# Plasmodium yoelii [10] = experiment: Antimalarial activity against erythrocytic Plasmodium yoelii MRA-428 infected in CF1 mouse assessed as reduction in parasitemia at 80 mg/kg, po once daily for 4 days measured on day 5; type: functional; design: scale not given: the % may be the effect or the level left; settings: time 4 day
# in vitro [11] = settings: human, liver microsomes
# Plasmodium yoelii [12] = experiment: Antimalarial activity against erythrocytic Plasmodium yoelii MRA-428 infected in CF1 mouse assessed as cured mouse at 25 mg/kg, po once daily for 4 days measured on day 28 day; type: functional, organism-based; settings: time 4.0 day
# [13] = Solubility of the compound in potassium phosphate buffer at pH 7.4 by UV-vis spectroscopy; settings: buffer
# Plasmodium yoelii [14] = experiment: Antimalarial activity against erythrocytic Plasmodium yoelii MRA-428 infected in CF1 mouse assessed as reduction in parasitemia at 10 mg/kg, po once daily for 4 days measured on day 5; type: functional; design: scale not given: the % may be the effect or the level left; settings: time 4 day
# Plasmodium falciparum [15] = experiment: Antiplasmodial activity against asexual blood-stage Plasmodium falciparum Tm90-C2B using 2% haematocrit and 0.2% parasitemia assessed as reduction in fluorescence measured after 72 hrs by Malaria SYBR Green I-based Fluorescence (MSF) assay; type: functional, organism-based
# HepG2 = experiment: Cytotoxicity against human HepG2 cells assessed as cell viability measured after 48 hrs by MTT assay; type: toxicity, cell-based; settings: hepg2
# Plasmodium yoelii [16] = experiment: Antimalarial activity against erythrocytic Plasmodium yoelii MRA-428 infected in CF1 mouse assessed as reduction in parasitemia at 25 mg/kg, po once daily for 4 days measured on day 5; type: functional; design: scale not given: the % may be the effect or the level left; settings: time 4 day
# [17] = Metabolic stability in mouse liver microsomes assessed as half life measured up to 60 mins by LC/MS analysis; type: ADME, Microsome
# in vitro [18] = settings: human
# Description: Selectivity index, ratio of IC50 for cytotoxicity against human HepG2 cells to IC50 for antiplasmodial activity against asexual blood-stage Plasmodium falciparum D6
# MDR1 (human) [19] = experiment: Efflux ratio, ratio of apparent permeability across apical to basolateral side over basolateral to apical side in MDCK transfected with human MDR1 cells incubated for 1 hr by LC-MS analysis; settings: dog
efflux ratio at 1 h (MDR1 (human) [19]),SMILES,Papp B→A at 1 h (MDR1 (human) [1]) [×10⁻⁶ cm/s],microsomal CLint at 1 h (in vitro [2]) [µL/min/mg],half-life [3] [min],IC50 (Plasmodium falciparum [4]) [nM],Activity (Plasmodium yoelii [5]),Activity (Plasmodium yoelii [6]) [%],Activity (Plasmodium yoelii [7]),Papp A→B at 1 h (MDR1 (human) [8]) [×10⁻⁶ cm/s],IC50 (Plasmodium falciparum [9]) [nM],Activity (Plasmodium yoelii [10]) [%],microsomal CLint at 1 h (in vitro [11]) [µL/min/mg],Activity (Plasmodium yoelii [12]),solubility [13] [µM],Activity (Plasmodium yoelii [14]) [%],IC50 (Plasmodium falciparum [15]) [nM],IC50 (HepG2) [nM],Activity (Plasmodium yoelii [16]) [%],half-life [17] [min],selectivity ratio (in vitro [18])
–,CCC1=C(C)/C(=C/NC2CCCCC2)N=C1c1ccc(CC)[nH]1,0.23,13.1,34.3,14.9,Not active; None Of The Mouse Cured Out Of Four Tested,100,Active; Four Mouse Cured Out Of Four,0.46,33.8,100,40.4,Not active; None Of The Mouse Cured Out Of Four Tested,23,45.7,13.3,6010,100,> 60,–
0.71,CCC1=C(CC)/C(=C/NC23C[C@H]4C[C@@H](C2)C[C@@H](C3)C4)N=C1c1ccc(CC)[nH]1,22,27.5,> 60,1.16,Not active; None Of The Mouse Cured Out Of Four Tested,100,–,31,0.95,–,18.5,Not active; None Of The Mouse Cured Out Of Four Tested,10.3,53,0.984,1500,100,50.3,1580
–,CCC1=C(C)/C(=C/NC2CCCCCC2)N=C1c1ccc(CC)[nH]1,0.037,22,39.6,10.8,Not active; None Of The Mouse Cured Out Of Four Tested,100,Active; Four Mouse Cured Out Of Four,0.036,8.4,100,35.1,Not active; None Of The Mouse Cured Out Of Four Tested,12.5,43.8,7.5,4230,100,> 60,–
0.43,CCC1=C(CC)/C(=C/N[C@H]2CC[C@H](C(F)(F)F)CC2)N=C1c1ccc[nH]1,0.6,25.9,22.5,111,Not active; None Of The Mouse Cured Out Of Four Tested,100,–,1.4,196,–,61.6,Not active; None Of The Mouse Cured Out Of Four Tested,314,95.7,169,24500,100,53.6,125
–,CCC1=C(C)/C(=C/NC2CCCCCCC2)N=C1c1ccc(C)[nH]1,0.04,0.47,45.4,3.43,Not active; None Of The Mouse Cured Out Of Four Tested,100,Active; Three Mouse Cured Out Of Four,0.063,6.59,100,30.5,Not active; None Of The Mouse Cured Out Of Four Tested,19.9,96.5,4.59,3510,100,> 60,–
–,CCC1=C(CC)/C(=C/NC2CCCCC2)N=C1c1ccc(CC)[nH]1,0.091,14.8,> 60,4.34,Not active; None Of The Mouse Cured Out Of Four Tested,100,Active; Two Mouse Cured Out Of Four,0.002,9.03,100,17,Active; Two Mouse Cured Out Of Four,31.3,98.9,7.09,5170,100,> 60,–
–,CCC1=C(CC)/C(=C/NC2CCCCCCC2)N=C1c1ccc(C)[nH]1,0.066,16.8,> 60,5.75,–,–,Not active; None Of The Mouse Cured Out Of Four Tested,0.006,10.6,100,20.6,Active; Four Mouse Cured Out Of Four,< 3.125,68.5,4.95,3190,100,> 60,–
–,CCC1=C(C)/C(=C/NC2CCCCCC2)N=C1c1ccc(C)[nH]1,–,8.16,48.9,18.6,Not active; None Of The Mouse Cured Out Of Four Tested,100,Active; Three Mouse Cured Out Of Four,–,29.5,100,28.3,Not active; None Of The Mouse Cured Out Of Four Tested,25.7,55.3,23.4,6120,100,> 60,–
–,CCc1ccc(C2=N/C(=C\NC3CCCCCC3)C(C)=C2C)[nH]1,0.035,4.36,> 60,1.32,–,100,Not active; None Of The Mouse Cured Out Of Four Tested,–,2.1,100,6.78,–,93.1,42.8,1.55,–,94.1,> 60,–
0.093,COC1=C(OC)/C(=C/NC23C[C@H]4C[C@@H](C2)C[C@@H](C3)C4)N=C1c1ccc[nH]1,0.025,32.1,17.6,5.96,Not active; None Of The Mouse Cured Out Of Four Tested,100,–,0.27,–,–,78.7,Not active; One Mouse Cured Out Of Four,167,63.1,4.46,4660,100,43.2,789
–,CCc1ccc(C2=N/C(=C\NC3CCCCC3)C3=C2CCCC3)[nH]1,0.22,5.71,> 60,1.4,Not active; None Of The Mouse Cured Out Of Four Tested,100,Not active; None Of The Mouse Cured Out Of Four Tested,0.007,3.5,100,6.93,Not active; None Of The Mouse Cured Out Of Four Tested,19.5,43.1,1.41,1190,100,> 60,–
1,CCC1=C(C)/C(=C/NC23C[C@H]4C[C@@H](C2)C[C@@H](C3)C4)N=C1c1ccc(CC)[nH]1,0.027,–,> 60,0.348,Not active; None Of The Mouse Cured Out Of Four Tested,100,–,0.026,0.909,–,–,Not active; None Of The Mouse Cured Out Of Four Tested,3.95,100,0.844,2970,100,> 60,3270
